# From paper PMC6627486, “Ipomoeassin F Binds Sec61α to Inhibit Protein Translocation” (Journal of the American Chemical Society, 2019)
# Where two headings read alike, the source gives them in different places.
# How the values were obtained:
# Type in all cases: cell-based, human
# WT HEK = assay: Alamar Blue viability, WT HEK293; conditions: read-out: cell viability IC50
# Procedure: (§1) AlamarBlue Cytotoxicity Assay […]
# HCT116 and HEK293T. Viable cells were counted using an automated cell counter (BioRad TC20) before each experiment. Experiments were performed either in quadruplicate or duplicate sets. First 100µ l of HCT116 or HEK293T cells at a density of 25,000 cells/m l was seeded in black wall, clear bottom, 96-well plates (2500 cells/well) (Viewplate-96 Perkin Elmer). HEK293 FRT Trex cells were seeded in complete medium supplemented to 1 μg/ml Doxycycline to induce expression of Sec61a constructs. Cells were then incubated at 37 °C and 5% CO2 for 24 h. The compounds were dissolved in DMSO to make drug stocks (10 mM). The stock solutions were diluted with the complete DMEM or McCoy’s 5A culture media supplemented with DMSO to make a series of gradient fresh working solutions at equal DMSO percentage immediately prior to each test. Subsequently, the cells were treated with 25 μl of the freshly made gradient in a total volume of 125 μl/well for 72 h. After that, the media were supplemented with 10% of AlamarBlue (resazurin) stock solution. The plate was then incubated at 37 °C and 5% CO2 for another 4 h. Emission of each well at 620 nm was detected by a microplate reader (Perkin Elmer EnSpire) at excitation 580 nm. The percentage of viability compared to the negative control (DMSO -treated cells) was determined. […]
# HepG2 cells = assay: Pulse-chase analysis of protein secretion in HepG2 cells; conditions: for secretory proteins in cell media: HepG2, 100 nM Ipom-F or 42 nM mycolactone 13.5 h, 100 nM bortezomib 2 h
# Procedure: Pulse‐Chase Analysis of Protein Secretion in HepG2 Cells
# The secretion assay was performed using a pulse–chase approach as described previously.20 HepG2 cells were treated with DMSO, 100 nM compound 8, 100 nM Ipom-F or […] mycolactone for 13.5 h before initiating the experiment, whereas pre-treatment with bortezomib 100 nM (Stratech) or 2.5 μg/ml brefeldin A were performed for 2 h and 1 h, respectively. Cells were starved in Met‐ and Cys‐free DMEM (Invitrogen) for 20 min at 37°C. Labeling was initiated by addition of fresh starvation medium containing […] [35S]Met and [35S]Cys protein labeling mix (Perkin Elmer; specific activity >1,000 Ci/mmol) for 15 min. After washing with PBS, cells were incubated in serum‐free DMEM supplemented with excess unlabeled L‐Met and L‐Cys (2 mM final concentration) for 2 h. The compounds were included throughout the starvation, pulse and chase. Secreted proteins in the media were recovered by precipitation with 13% trichloroacetic acid, washed in acetone and dissolved in 2x sample buffer. Cells were solubilized with Triton X‐100 lysis buffer (20 mM Tris, pH 7.5, 150 mM NaCl, 1% TX-100, 1 mM EDTA, 1 mM EGTA) supplemented with protease inhibitor cocktail and phenylmethylsulfonyl fluoride. Equal amounts
# HEK R66I = assay: Alamar Blue viability, HEK293 expressing Sec61α R66I; conditions: read-out: cell viability IC50
# Procedure: as §1
# Compounds were diluted from a DMSO stock into culture medium as described above. Cells were treated for 96 h, then viability measured with AlamarBlue, detected using the conditions described but with a BMG Fluostar Optima Microplate Reader. The percentage of viability compared to the negative control (DMSO-treated cells) was determined. GraphPad Prism 6 software was used to make a plot of % viability versus sample […]
# HCT116 and HEK293T. Viable cells were counted using an automated cell counter (BioRad TC20) before each experiment. Experiments were performed either in quadruplicate or duplicate sets. First 100µ l of HCT116 or HEK293T cells at a density of 25,000 cells/m l was seeded in black wall, clear bottom, 96-well plates (2500 cells/well) (Viewplate-96 Perkin Elmer). HEK293 FRT Trex cells were seeded in complete medium supplemented to 1 μg/ml Doxycycline to induce expression of Sec61a constructs. Cells were then incubated at 37 °C and 5% CO2 for 24 h. The compounds were dissolved in DMSO to make drug stocks (10 mM). […] Emission of each well at 620 nm was detected by a microplate reader (Perkin Elmer EnSpire) at excitation 580 nm. The percentage of viability compared to the negative control (DMSO -treated cells) was determined. […]
# WT HCT116 = assay: Alamar Blue viability, parental HCT116 (96 h); conditions: read-out: cell viability IC50
# Procedure: AlamarBlue Cytotoxicity Assay
# MDA-MB-231, MCF-10A and HCT116. Viable cells were counted with a hemocytometer immediately before each experiment . Experiments were done in triplicate. First, 100 μL of MDA-MB-231 cells or MCF-10A cells at the density of 50,000 cells/mL was seeded in a 96-well plate (5,000 cells/well) and then incubated at 37 °C and 5% CO2 for 24 h. The compounds were dissolved in DMSO (dimethyl sulfoxide) to make drug stocks (10 mM). The stock solutions were diluted with the complete DMEM high glucose culture medium to make a series of gradient fresh working solutions right before each test. Subsequently, the cells were treated with 100 μL of the freshly made gradient working solution in a total volume of 200 μL/well for 72 h. After that, the media were discarded and 200 μL of the fresh complete medium containing 10% of AlamarBlue (resazurin) stock solution was added to each well. The plate was then incubated at 37 °C and 5% CO2 for another 3 h. Emission of each well at 620 nm was detected by a microplate reader (BioTek Synergy H1) at excitation 580 nm. For HCT116 WT and mutant lines, cells were seeded at 1000 cells/ well in complete McCoys medium. […] Cells were treated for 96 h, then viability measured with AlamarBlue, detected using the conditions described but with a BMG Fluostar Optima Microplate Reader. […]
# was determined. […]
# [1] = system: IL-2 production by Jurkat T cells; assay: Activation-induced IL-2 production by Jurkat T cells; conditions: 1 h preincubation then 24 h activation
# Procedure: Jurkat E6.1 (ATCC TIB-152TM) T cells were cultured in RPMI GlutamaxTM (Life Technologies),
# supplemented with 10% heat-inactivated fetal calf serum (FCS) (Invitrogen) and penicillin/streptomycin
# (100 U/ml, 100 µg/ml). […]
# FlowJo X software. […]
SMILES,"IC50 (WT HEK; Homo sapiens, HEK293, 72 h) [nM]","global protein synthesis (total radiolabeled proteins) (HepG2 cells; HepG2, 100 nM, 13.5 h)",secretory proteins in cell media (HepG2 cells),"IC50 (HEK R66I; Homo sapiens, HEK293, 72 h) [µM]","IC50 (WT HCT116; Homo sapiens, HCT-116, WT HCT116, 96 h) [nM]",IC50 ([1]; Homo sapiens) [nM],IC50 (WT HEK; 72 h) [nM],IC50 (HEK R66I; 72 h) [µM],"IC50 (WT HCT116; WT HCT116, 96 h) [nM]",IC50 [1] [nM]
C/C=C(\C)C(=O)O[C@@H]1[C@@H](O)[C@@H]2O[C@H]3[C@H](O[C@@H](CCCCC)CCCCCCC(=O)CCC(=O)OC[C@@H](O2)[C@H]1OC(=O)/C=C/c1ccccc1)O[C@H](C)[C@H](OC(C)=O)[C@@H]3O [ipomoeassin F],9.6 ± 1,did not inhibit global protein synthesis,substantial reduction,> 10,40 ± 4,9.9,–,–,–,–
"CC(=C\C=C\C(C)=C\[C@H](O)[C@@H](O)C[C@H](C)O)/C=C(C)/C=C/C(=O)O[C@H]1CCCC(=O)O[C@@H]([C@@H](C)C/C(C)=C/[C@@H](C)[C@H](O)C[C@@H](C)O)C/C=C(\C)C[C@@H]1C [mycolactone, reference compound]",–,–,substantial reduction,–,–,–,23.6 ± 0.6,4.62,1.9 ± 0.6,6
